Measurements taken from PMC7412065, “In Vitro Antimicrobial and Antiproliferative Activities of the Root Bark Extract and Isolated Chemical Constituents of Zanthoxylum paracanthum Kokwaro (Rutaceae)” (Plants, 2020).
Converted amounts (≈) assume the structure as drawn. Like-named read-outs stand apart in the source and are kept apart here.

What was measured:
[1] = tested on: methicillin resistant Staphylococcus aureus (MRSA), un-typed isolate; test: Broth dilution MIC against MRSA; type: cell-based; conditions: for MIC: Staphylococcus aureus, MRSA, read-out: Antimicrobial minimal inhibition concentration (MIC), MRSA; for MIC / Antimicrobial minimal inhibition concentration (MIC), MRSA: 24 h; for Growth inhibition of MRSA (in words): up to 1000 µg/mL
[2] = tested on: Staphylococcus aureus (ATCC 29213); test: Broth dilution MIC against S. aureus; type: cell-based; conditions: for MIC: Staphylococcus aureus, ATCC29213, 24 h, read-out: Antimicrobial minimal inhibition concentration (MIC), S. aureus
[3] = tested on: Escherichia coli (ATCC 25922); test: Broth dilution MIC against E. coli; type: cell-based; conditions: for MIC: Escherichia coli, read-out: Antimicrobial minimal inhibition concentration (MIC), E. coli
[4] = tested on: Candida albicans (ATCC 10231); test: Broth dilution MIC against C. albicans; type: cell-based; conditions: for MIC: Candida albicans, read-out: Antimicrobial minimal inhibition concentration (MIC), C. albicans; for Growth inhibition of C. albicans (in words): up to 1000 µg/mL
[5] = tested on: human breast cancer cell line (HCC 1395); test: MTT antiproliferative assay, breast cancer cells; type: cell-based; conditions: for IC50: Homo sapiens; for Selectivity Indexes HCC 1395: SI = CC50 (Vero E6) / IC50 (HCC 1395)
[6] = tested on: human prostate cancer cell line (DU 145); test: MTT antiproliferative assay, prostate cancer cells; type: cell-based; conditions: for IC50: Homo sapiens; for Selectivity Indexes DU 145: SI = CC50 (Vero E6) / IC50 (DU 145)
[7] = MTT cytotoxicity assay, normal cell line; conditions: African green monkey
MRSA = tested on: MRSA; set-up: method as in PMID 22864735; conditions: compound isolated from Zanthoxylum rhetsa roots; cited from earlier work
E. coli = tested on: E. coli; set-up: method as in PMID 22864735; conditions: compound isolated from Zanthoxylum rhetsa roots; cited from earlier work
in vitro = conditions: African green monkey
Clostridium sporogenes = tested on: Clostridium sporogenes; set-up: method as in PMID 25546028; conditions: cited from earlier work
Streptococcus pyogenes = tested on: Streptococcus pyogenes; set-up: method as in PMID 25546028; conditions: cited from earlier work
[8] = ATCC 29213, broth two-fold dilution, 37 °C, 24 h
[9] = ATCC25922, ATCC 25922, broth two-fold dilution, 37 °C, 24 h
[10] = ATCC10231, ATCC 10231, broth two-fold dilution, 30 °C, 72 h
[11] = HCC1395, MTT assay, Mean ± SEM, triplicate, read-out: IC50 Cancerous Cell Lines HCC 1395
[12] = DU-145, MTT assay, Mean ± SEM, triplicate, read-out: IC50 Cancerous Cell Lines DU 145
[13] = Vero E6 cells (normal cell line)

| Compound | Selectivity Indexes HCC 1395 [5] | Selectivity Indexes DU 145 [6] | MIC [2, 8] [µg/mL] | MIC [3, 9] [µg/mL] | MIC [4, 10] [µg/mL] | IC50 [5, 11] [µg/mL] | IC50 [6, 12] [µg/mL] | MIC ([1]; broth two-fold dilution, 37 °C) [µg/mL] | CC50 at 48 h [7, 13] [µg/mL] | Antimicrobial minimal inhibition concentration (MIC), MRSA ([1]; broth two-fold dilution, 37 °C) [µg/mL] | other results |
| --- | --- | --- | --- | --- | --- | --- | --- | --- | --- | --- | --- |
| CC[C@H](/C=C/[C@@H](C)[C@H]1CC[C@H]2[C@@H]3CC=C4C[C@@H](O)CC[C@]4(C)[C@H]3CC[C@]12C)C(C)C [stigmasterol (2), stigmasterol] | 294.94 | 0.88 |  |  |  |  |  |  |  |  | MIC [1]: > 1000 µg/mL; Growth inhibition of MRSA (in words) [1]: did not inhibit the growth; MIC [2]: 62.5 µg/mL (≈ 151 µM); MIC ([3]; ATCC25922, 24 h): 15.6 µg/mL (≈ 37.9 µM); MIC ([4]; ATCC10231, 72 h): > 1000 µg/mL; Growth inhibition of C. albicans (in words) [4]: did not inhibit the growth; IC50 ([5]; HCC1395, read-out: IC50 Cancerous Cell Lines HCC 1395): 0.42 ± 0.1 µg/mL (≈ 1.02 µM); IC50 ([6]; DU-145, read-out: IC50 Cancerous Cell Lines DU 145): 140.5 ± 1.27 µg/mL (≈ 340 µM); CC50 at 48 h [7]: 124 µg/mL (≈ 300 µM) |
| COc1ccc2c(c1OC)C(CC(C)=O)N(C)c1c-2ccc2cc3c(cc12)OCO3 (centres unmarked) [8-acetonyldihydrochelerythrine (4), 8-acetonyldihydrochelerythrine] | 4.79 | 0.72 | 15.6 (≈ 38.5 µM) | 15.6 (≈ 38.5 µM) | 62.5 (≈ 154 µM) | 9.99 ± 0.6 (≈ 24.6 µM) | 66.82 ± 0.58 (≈ 165 µM) |  |  |  | MIC [1]: 31.2 µg/mL (≈ 77.1 µM); MIC against MRSA (MRSA): 8 µg/mL (≈ 19.7 µM); MIC against E. coli (E. coli): 16 µg/mL (≈ 39.5 µM); CC50 at 48 h [7]: 47.8 ± 1.15 µg/mL (≈ 118 µM) |
| COc1cccc2c1C(=O)c1c(O)c3c(c(O)c1C2=O)C[C@@](O)(C(=O)CO)C[C@@H]3O[C@H]1C[C@H](N)[C@H](O)[C@H](C)O1 [Doxorubicin, reference compound] | 1.41 | 0.51 |  |  |  | 0.21 ± 0.2 (≈ 0.386 µM) | 0.59 ± 0.01 (≈ 1.09 µM) |  |  |  | CC50 at 48 h (in vitro): 0.3 ± 0.12 µg/mL (≈ 0.552 µM) |
| CCCCCCCCCCCCCC(=O)O [myristic acid (1), myristic acid] | 1.12 | 0.81 | > 1000 | > 1000 | > 1000 | 57.7 ± 1.2 (≈ 253 µM) | 80.24 ± 0.12 (≈ 351 µM) | > 1000 | 64.86 ± 0.51 (≈ 284 µM) |  |  |
| c1cc2c(cc1[C@H]1OC[C@H]3[C@@H]1CO[C@@H]3c1ccc3c(c1)OCO3)OCO2 [sesamin (3), sesamin] | 39.97 | 1.18 | 500 (≈ 1410 µM) | > 1000 | > 1000 | 3.39 ± 1 (≈ 9.57 µM) | 115.06 ± 0.03 (≈ 325 µM) | > 1000 |  |  | Growth inhibition of MRSA (in words) [1]: no activity; Growth inhibition of E. coli (in words) ([3]; up to 1000 µg/mL): no activity; Growth inhibition of C. albicans (in words) [4]: no activity; CC50 at 48 h (in vitro): 135.31 ± 0.12 µg/mL (≈ 382 µM) |
| O=c1ccc2nccc3c4ccccc4n1c23 [canthin-6-one (7), canthin-6-one] | 5.15 | 4.43 | 0.48 (≈ 2.18 µM) | 1.95 (≈ 8.85 µM) | 3.91 (≈ 17.8 µM) | 8.12 ± 0.6 (≈ 36.9 µM) | 9.43 ± 0.01 (≈ 42.8 µM) | 0.97 (≈ 4.4 µM) | 41.8 ± 0.64 (≈ 190 µM) | 0.98 | Antimicrobial minimal inhibition concentration (MIC), S. aureus [2, 8]: 0.49 µg/mL |
| COc1ccc2c(c1OC)c(=O)n(C)c1c3cc4c(cc3ccc21)OCO4 [8-oxochelerythrine (8), 8-oxochelerythrine] | 9.60 | 2.13 |  | 3.91 (≈ 10.8 µM) | 15.6 (≈ 43 µM) | 14.1 ± 0.3 (≈ 38.8 µM) | 63.4 ± 1.1 (≈ 175 µM) | 62.5 (≈ 172 µM) | 135.32 ± 0.12 (≈ 372 µM) | 62.50 | MIC against Clostridium sporogenes (Clostridium sporogenes): 0.91 µM (≈ 0.331 µg/mL); MIC against Streptococcus pyogenes (Streptococcus pyogenes): 3.64 µM (≈ 1.32 µg/mL) |
| COc1ccc2c(c1)c1ccnc3ccc(=O)n2c31 [10-methoxycanthin-6-one (6), 10-methoxycanthin-6-one] | 3.67 | 34.15 | 1.95 (≈ 7.79 µM) | 3.91 (≈ 15.6 µM) | 7.81 (≈ 31.2 µM) | 14.7 ± 0.5 (≈ 58.7 µM) | 1.58 (≈ 6.31 µM) | 3.91 (≈ 15.6 µM) | 53.95 ± 0.38 (≈ 216 µM) |  |  |
| Omacilin [reference compound] |  |  |  |  |  |  |  |  |  | 0.98 | Antimicrobial minimal inhibition concentration (MIC), S. aureus [2, 8]: 0.49 µg/mL; Antimicrobial minimal inhibition concentration (MIC), E. coli ([3]; ATCC 25922, broth two-fold dilution, 37 °C, 24 h): 0.98 µg/mL |
| OC(Cn1cncn1)(Cn1cncn1)c1ccc(F)cc1F [Fluconazole, reference compound] |  |  |  |  | 1.95 (≈ 6.37 µM) |  |  |  |  |  |  |
